Key:
Assay type in all cases: cell-based
[1] = system: acetylation of α-tubulin and histone H3 (markers for HDAC6 and nuclear HDAC inhibition); assay: Western blotting of acetylation markers in VCaP cells; conditions: 16 h, 2-63 and 12b 5 and 15 μM, SAHA 1 μM
Description: (§1) Western Blotting. […] Proteins in cell lysates (40 μg) were separated using electrophoresis on SDS-PAGE and transferred onto PVDF (polyvinylidenedifluoride) membranes. Membranes were blocked in 5% fat-free milk followed by incubation with primary antibodies overnight at 4° C., and the secondary horseradish peroxidase-conjugated anti-rabbit or anti-mouse antibodies. The blots were developed in the Enhanced Chemiluminescence mixture and detected by ImageQuant™ LAS 4000 imaging system (GE). Density of protein bonds were calculated and analyzed by using imageJ software downloaded from the National Institute of Health website.

[2] = system: AR, AR-V7, c-Myc, HO-1, Hsp70; assay: Western blotting under BSO combination, VCaP cells; conditions: VCaP, 2-63 2.5 μM plus BSO 100 μM
Description: (§2) It was first investigated if iron chelators or antioxidants could rescue the viability of drug combination-treated cells. […] HO-1 catalyzes the decomposition of heme into carbon monoxide, biliverdin, and Fe^2+. […] Both Fer-1 and the lipophilic antioxidant α-Toc can effectively scavenge radicals in phosphatidylcholine lipid bilayers and break the redox cycle that generates lipid hydroperoxide.
as §1

[3] = system: AR-V7, Hsp70, HO-1; assay: Western blotting under BSO combination, 22Rv1 cells; conditions: 2-63 2.5 μM plus BSO 100 μM, 24 h
Description: as §2, §1

[4] = molecular target: T1, FL AR and AR-V7 (Homo sapiens, UniProt P10275); assay: Western blotting of FL AR and AR-V7 in VCaP cells; conditions: full media, 16 h, 2-63, 12b 5 and 15 μM, Enz 10 μM, SAHA 1 μM
T1 construct: Whole cell lysates were subjected to Western blotting and probed with the indicated antibodies; endogenous in cells; host or cells: VCaP
T1 sequence (P10275 1-920): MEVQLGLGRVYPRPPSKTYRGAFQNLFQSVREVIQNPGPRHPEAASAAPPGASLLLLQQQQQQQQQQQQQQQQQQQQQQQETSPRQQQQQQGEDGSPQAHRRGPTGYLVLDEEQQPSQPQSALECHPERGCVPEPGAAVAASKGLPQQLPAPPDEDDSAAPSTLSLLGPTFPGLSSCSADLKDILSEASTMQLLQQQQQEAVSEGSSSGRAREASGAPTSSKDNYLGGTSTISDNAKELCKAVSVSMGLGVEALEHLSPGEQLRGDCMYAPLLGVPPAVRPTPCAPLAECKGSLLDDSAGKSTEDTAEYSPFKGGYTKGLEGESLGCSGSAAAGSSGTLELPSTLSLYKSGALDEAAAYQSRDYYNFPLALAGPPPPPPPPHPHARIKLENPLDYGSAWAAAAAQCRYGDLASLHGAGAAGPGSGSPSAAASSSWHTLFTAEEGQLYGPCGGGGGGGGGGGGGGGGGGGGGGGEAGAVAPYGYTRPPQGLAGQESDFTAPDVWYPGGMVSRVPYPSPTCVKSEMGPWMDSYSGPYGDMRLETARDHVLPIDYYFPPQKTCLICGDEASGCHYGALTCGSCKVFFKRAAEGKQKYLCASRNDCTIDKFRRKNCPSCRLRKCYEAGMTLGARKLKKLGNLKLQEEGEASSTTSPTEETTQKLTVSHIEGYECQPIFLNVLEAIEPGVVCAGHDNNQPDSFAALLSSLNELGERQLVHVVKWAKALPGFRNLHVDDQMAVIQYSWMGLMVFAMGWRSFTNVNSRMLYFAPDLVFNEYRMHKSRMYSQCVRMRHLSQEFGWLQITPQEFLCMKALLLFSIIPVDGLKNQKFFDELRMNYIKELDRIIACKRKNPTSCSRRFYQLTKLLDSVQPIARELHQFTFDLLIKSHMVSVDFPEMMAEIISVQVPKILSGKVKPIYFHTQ
Description: as §1

CC(=O)N[C@H](CSC(=S)NCCCCCCc1ccc(N2C(=S)N(c3ccc(C#N)c(C(F)(F)F)c3)C(=O)C2(C)C)cn1)C(=O)O [2-63, N-acetyl-S-((6-(5-(3-(4-cyano-3-(trifluoromethyl)phenyl)-5,5-dimethyl-4-oxo-2-thioxoimidazolidin-1-yl)pyridine-2-yl)hexyl)carbamothioyl)-D-cysteine]
histone H3 acetylation [1]: did not show significant effects | α-tubulin acetylation ([1]; SFN 15 μM): did not show significant effects | AR/AR-V7, c-Myc and HO-1 expression versus individual drugs [2]: more effectively downregulated AR/AR-V7 and c-Myc and upregulated the cellular stress marker HO-1 | AR-V7 expression, 22Rv1 cells [3]: effectively depletes AR-V7 | FL AR expression [4]: dose-dependently decreased
